Values joined by “and” are separate entries in the source; they are usually repeats but may differ in a detail not shown here. Equal values may be shown once.
What was measured:
MOLM-13 cells = assay: Annexin-V staining for apoptosis, wild type MOLM-13; format: cell-based, human; settings: for Treatment-induced cell death (annexin-V): 1 μM, 72 h, vs DMSO; for total apoptosis, flow cytometry: MOLM-13; for Late apoptosis, flow cytometry / Early apoptosis, flow cytometry: WT
Description: Wild type and CRBN^−/− MOLM-13 cells were grown in 12-well plates (TPP, Techno Plastic Products AG) with 500,000 cells per well in 2 ml total media volume. Cells were treated with 1 μl/ml DMSO or 1 μM compound in triplicate, and incubated for 24 or 72 h at 37 °C. To prepare samples, this buffer was used: 10 mM HEPES, 0.14 M NaCl, 2.5 mM CaCl2 pH 7.4, 2% v/v FBS in UltraPure water (Invitrogen). After incubation, samples were collected in 5-ml tubes for flow cytometry (Falcon). Single-stain controls consisted of ~150 μl of multiple samples combined. Wells were washed with 1 ml of buffer that was added to the corresponding sample tube. Cells were centrifuged at 500×g for 5 min at 4 °C to form a pellet. Supernatant was decanted and cells were washed again with 3 ml of buffer, then centrifuged. After decanting the supernatant, 3 μl of APC-conjugated anti-Annexin-V antibody (BioLegend) was added to each tube in the residual buffer left behind. Samples were mixed by vortex and incubated at room temperature in the dark for 20 min. Samples were then washed and centrifuged a final time, decanting the supernatant and blotting the tubes to remove residual buffer. 50 μl of buffer with DAPI was added to all appropriate samples and mixed, then analyzed by flow cytometry.
Supplementary Fig. 13: Gating for Annexin V flow cytometry analysis. Total cells were gated to remove cell debris, followed by single cell gating on the FSC-A/FSC-H diagonal. Within the single […]
Live cells are negative for both fluorescent markers, DAPI positive/APC negative cells are necrotic, APC positive/DAPI negative cells are still alive but in the early stages of apoptosis, and double positive cells are dead via apoptosis. Percentages of early and late apoptosis were plotted in supplementary figures 4 and 5.
(1 picture or pasted object on this page, not shown here)

CRBN−/− MOLM-13 cells = assay: Wild type versus CRBN−/− MOLM-13 cells (viability, CRBN dependence); format: cell-based, human; parameters: key to cell viability, dose-response replicate values: % viability = 100 − % activity (RLU normalized to negative control); settings: for cell viability, dose-response replicate values: MOLM-13 CRBN KO
Description: Having identified SJ7095 as a compound with a potent antiproliferative effect in MOLM-13 cells, we next examined whether the observed effect was CRBN-dependent. […] In an orthogonal approach, we tested SJ7095 in wild-type and CRBN-knockout MOLM-13 cells in a cell viability assay (Supplementary Fig. 1b).
CRBN^−/− MOLM-13 cells were created using CRISPR-Cas9 technology. Briefly, 1 million MOLM-13 cells were transiently transfected with precomplexed ribonuclear proteins (RNPs) consisting of 400 pmol of chemically modified sgRNA (Synthego), 135pmol of SpCas9 protein (St. Jude Protein Production Core), and 500 ng of pMaxGFP (Lonza) via nucleofection (Lonza, 4D-Nucleofector™ X-unit) using solution SF and program EO100 in a 100 µl cuvette according to the manufacturer’s recommended protocol. Transfected cells (GFP+) were single-cell sorted by flow cytometry (St. Jude Flow Cytometry and Cell Sorting Shared Resource) into 96-well tissue culture-treated plates 5 days post nucleofection. Cells were clonally expanded and screened for the desired targeted modification (out-of-frame indels) via targeted deep sequencing using gene-specific primers with partial Illumina adapter overhangs as previously described. Genotyping of clones was performed using CRIS.py[59]. Knockout clones were identified as clones containing only out-of-frame indels. PowerPlex® Fusion System (Promega) was used to confirm final clone identification (Hartwell Center for Biotechnology at St. Jude). All clones tested negative for mycoplasma by the MycoAlert^TMPlus Mycoplasma Detection Kit (Lonza). CRBN knockout confirmed by immunoblot (Supplementary Material).
MOLM-13 cells were plated in Corning 8804BC white 384-well assay plates at the appropriate cell number per well and incubated overnight at 37 °C in a humidified 5 % CO2 incubator. Compounds were transferred to the assay plate from a dose-response plate using a Labcyte Echo 650 Acoustic Liquid Handler (Beckman Coulter , USA). Cytotoxicity was determined following 72 h of incubation using Promega’s CellTiter-Glo reagent according to the manufacturer’s recommendation.
Luminescence was measured on the Envision plate reader (PerkinElmer, USA). Raw luminescence relative light unit (RLU) values for each compound at each concentration were normalized to obtain % activity using the following equation (1): 100 × [(mean(negctrl) – compound)/(mean (negctrl) – mean (posctrl))]. The % activity was converted to % viability using the following equation (2):
(100 – % activity), and then pooled from replicate experiments prior to fitting. Here, negctrl and posctrl refer to the negative (DMSO) and positive controls (staurosporine) on each plate. Dose-response curves were fit to the Hill equation using the GraphPad Prism (version 10). […]

O=C1CCC(N2Cc3c(CNC(=O)c4ccc(F)cc4)cccc3C2=O)C(=O)N1 (stereo not drawn) [SJ7095]
Treatment-induced cell death (annexin-V) (MOLM-13 cells): increased cell death
total apoptosis, flow cytometry (MOLM-13 cells; SI_Fig 4c, DMSO 9.7, 8.6, 9.8): 14.9 and 14.2 and 11
total apoptosis, flow cytometry (MOLM-13 cells; SI_Fig 5c, DMSO 8, 7.6, 6.1): 18.3 and 22.4 and 27.2
Late apoptosis, flow cytometry (MOLM-13 cells; SI_Fig 4b, DMSO 3, 2.7, 3): 4.8 and 4.2 and 3.7
Early apoptosis, flow cytometry (MOLM-13 cells; SI_Fig 4b, DMSO 6.8, 5.8, 6.8): 10.1 and 7.2
Late apoptosis, flow cytometry (MOLM-13 cells; SI_Fig 5b, DMSO 1.5, 1.2, 1.2): 4.9 and 6.3 and 8.6
Early apoptosis, flow cytometry (MOLM-13 cells; SI_Fig 5b, DMSO 6.5, 6.4, 4.9): 13.4 and 16.1 and 18.6
Antiproliferative activity in wild-type vs CRBN-knockout MOLM-13 (CRBN−/− MOLM-13 cells): CRBN dependent
cell viability, dose-response replicate values (CRBN−/− MOLM-13 cells; Concentration 0.00019646): 106.764 and 101.3 and 98.2605
cell viability, dose-response replicate values (CRBN−/− MOLM-13 cells; Concentration 0.00058939): 112.453 and 102.748 and 97.5209
cell viability, dose-response replicate values (CRBN−/− MOLM-13 cells; Concentration 0.00176818): 107.1 and 103.949 and 100.448
cell viability, dose-response replicate values (CRBN−/− MOLM-13 cells; Concentration 0.00530453): 108.398 and 94.7486 and 104.144
cell viability, dose-response replicate values (CRBN−/− MOLM-13 cells; Concentration 0.0159136): 99.903 and 106.159 and 104.247
cell viability, dose-response replicate values (CRBN−/− MOLM-13 cells; Concentration 0.0477407): 84.8196 and 104.71 and 103.354
cell viability, dose-response replicate values (CRBN−/− MOLM-13 cells; Concentration 0.143222): 100.147 and 105.205 and 99.7326
cell viability, dose-response replicate values (CRBN−/− MOLM-13 cells; Concentration 0.429667): 110.361 and 97.2541 and 107.93
cell viability, dose-response replicate values (CRBN−/− MOLM-13 cells; Concentration 1.289): 106.321 and 101.904 and 97.9209
cell viability, dose-response replicate values (CRBN−/− MOLM-13 cells; Concentration 3.867): 79.059 and 84.9366 and 87.8303

Cc1cccc(C(=O)Nc2ccc3c(c2)CN(C2CCC(=O)NC2=O)C3=O)c1 (stereo not drawn) [SJ0040]
Treatment-induced cell death (annexin-V) (MOLM-13 cells): increased cell death
total apoptosis, flow cytometry (MOLM-13 cells; SI_Fig 4c, DMSO 9.7, 8.6, 9.8): 14.9 and 12.6 and 13.6
total apoptosis, flow cytometry (MOLM-13 cells; SI_Fig 5c, DMSO 8, 7.6, 6.1): 33.8 and 33.6 and 34.8
Late apoptosis, flow cytometry (MOLM-13 cells; SI_Fig 4b, DMSO 3, 2.7, 3): 4.1 and 3.7 and 4.5
Early apoptosis, flow cytometry (MOLM-13 cells; SI_Fig 4b, DMSO 6.8, 5.8, 6.8): 10.8 and 9 and 9.1
Late apoptosis, flow cytometry (MOLM-13 cells; SI_Fig 5b, DMSO 1.5, 1.2, 1.2): 11.1 and 11.7 and 11.8
Early apoptosis, flow cytometry (MOLM-13 cells; SI_Fig 5b, DMSO 6.5, 6.4, 4.9): 22.7 and 21.8 and 23.1
viability at 0.00126002 µM (CRBN−/− MOLM-13 cells; Homo sapiens, MOLM-13, MOLM-13 CRBN KO, Conc 0.00126002 uM, read-out: cell viability, dose-response replicate values): 97.2%
viability at 0.0113402 µM (CRBN−/− MOLM-13 cells; Homo sapiens, MOLM-13, MOLM-13 CRBN KO, Conc 0.0113402 uM, read-out: cell viability, dose-response replicate values): 96.7%
viability at 0.0340206 µM (CRBN−/− MOLM-13 cells; Homo sapiens, MOLM-13, MOLM-13 CRBN KO, Conc 0.0340206 uM, read-out: cell viability, dose-response replicate values): 93.1%
viability at 0.102062 µM (CRBN−/− MOLM-13 cells; Homo sapiens, MOLM-13, MOLM-13 CRBN KO, Conc 0.102062 uM, read-out: cell viability, dose-response replicate values): 89.2%
viability at 0.306185 µM (CRBN−/− MOLM-13 cells; Homo sapiens, MOLM-13, MOLM-13 CRBN KO, Conc 0.306185 uM, read-out: cell viability, dose-response replicate values): 88.4%
viability at 0.918556 µM (CRBN−/− MOLM-13 cells; Homo sapiens, MOLM-13, MOLM-13 CRBN KO, Conc 0.918556 uM, read-out: cell viability, dose-response replicate values): 97.5%
viability at 2.75567 µM (CRBN−/− MOLM-13 cells; Homo sapiens, MOLM-13, MOLM-13 CRBN KO, Conc 2.75567 uM, read-out: cell viability, dose-response replicate values): 84.5%
viability at 8.267 µM (CRBN−/− MOLM-13 cells; Homo sapiens, MOLM-13, MOLM-13 CRBN KO, Conc 8.267 uM, read-out: cell viability, dose-response replicate values): 48.7%
cell viability, dose-response replicate values (CRBN−/− MOLM-13 cells; Conc 0.00126002 uM): 101.892 and 99.1853
cell viability, dose-response replicate values (CRBN−/− MOLM-13 cells; Conc 0.00378006 uM): 77.9399 and 92.8153 and 102.961
cell viability, dose-response replicate values (CRBN−/− MOLM-13 cells; Conc 0.0113402 uM): 90.8518 and 98.3247
cell viability, dose-response replicate values (CRBN−/− MOLM-13 cells; Conc 0.0340206 uM): 99.2582 and 100.85
cell viability, dose-response replicate values (CRBN−/− MOLM-13 cells; Conc 0.102062 uM): 95.1601 and 101.209
cell viability, dose-response replicate values (CRBN−/− MOLM-13 cells; Conc 0.306185 uM): 92.1664 and 101.967
cell viability, dose-response replicate values (CRBN−/− MOLM-13 cells; Conc 0.918556 uM): 93.1747 and 96.6395
cell viability, dose-response replicate values (CRBN−/− MOLM-13 cells; Conc 2.75567 uM): 84.7802 and 96.7661
cell viability, dose-response replicate values (CRBN−/− MOLM-13 cells; Conc 8.267 uM): 53.0309 and 66.5957

— publication PMC10791743, “Selective CK1α degraders exert antiproliferative activity against a broad range of human cancer cell lines” (Nature Communications, 2024)
